Series [1] addresses T1, Protein deacetylase HDAC6 (Homo sapiens, UniProt Q9UBN7).
T1 sequence (Q9UBN7 whole entry): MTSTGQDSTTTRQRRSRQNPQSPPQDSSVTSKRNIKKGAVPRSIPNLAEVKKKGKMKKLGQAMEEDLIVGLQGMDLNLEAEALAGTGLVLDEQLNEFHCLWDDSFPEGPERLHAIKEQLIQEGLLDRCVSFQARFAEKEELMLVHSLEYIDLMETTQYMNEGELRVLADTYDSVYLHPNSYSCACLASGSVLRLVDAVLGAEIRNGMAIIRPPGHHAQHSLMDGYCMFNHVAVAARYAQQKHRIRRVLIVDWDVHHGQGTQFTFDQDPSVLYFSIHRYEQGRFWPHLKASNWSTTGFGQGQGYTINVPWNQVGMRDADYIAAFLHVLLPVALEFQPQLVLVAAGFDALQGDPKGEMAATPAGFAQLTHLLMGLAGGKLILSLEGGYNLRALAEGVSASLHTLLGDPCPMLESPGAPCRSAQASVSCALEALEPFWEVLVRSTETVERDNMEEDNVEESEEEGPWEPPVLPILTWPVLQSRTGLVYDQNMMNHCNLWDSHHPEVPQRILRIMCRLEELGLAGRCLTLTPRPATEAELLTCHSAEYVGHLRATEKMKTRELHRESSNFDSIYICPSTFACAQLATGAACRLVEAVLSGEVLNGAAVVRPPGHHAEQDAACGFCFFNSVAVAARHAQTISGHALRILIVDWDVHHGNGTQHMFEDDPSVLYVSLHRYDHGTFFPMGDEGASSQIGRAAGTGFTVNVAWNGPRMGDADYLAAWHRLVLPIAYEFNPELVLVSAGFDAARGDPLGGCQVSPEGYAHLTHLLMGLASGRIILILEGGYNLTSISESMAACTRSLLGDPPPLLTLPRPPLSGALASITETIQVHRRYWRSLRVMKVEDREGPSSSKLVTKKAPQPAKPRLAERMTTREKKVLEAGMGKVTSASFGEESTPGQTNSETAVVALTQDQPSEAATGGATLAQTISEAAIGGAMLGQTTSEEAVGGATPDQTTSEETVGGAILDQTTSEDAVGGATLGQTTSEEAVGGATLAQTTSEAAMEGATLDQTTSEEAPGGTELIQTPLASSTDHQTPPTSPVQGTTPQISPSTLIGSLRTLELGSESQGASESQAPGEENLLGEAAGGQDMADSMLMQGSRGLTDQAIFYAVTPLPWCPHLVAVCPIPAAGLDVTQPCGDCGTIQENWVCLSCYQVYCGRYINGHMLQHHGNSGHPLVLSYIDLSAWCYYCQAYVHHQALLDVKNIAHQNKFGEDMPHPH
Briefly: Inhibition of HDAC6 (unknown origin).

Series [2] deals with T2, Histone deacetylase 8 (Homo sapiens, UniProt Q9BY41).
T2 sequence (Q9BY41 whole entry): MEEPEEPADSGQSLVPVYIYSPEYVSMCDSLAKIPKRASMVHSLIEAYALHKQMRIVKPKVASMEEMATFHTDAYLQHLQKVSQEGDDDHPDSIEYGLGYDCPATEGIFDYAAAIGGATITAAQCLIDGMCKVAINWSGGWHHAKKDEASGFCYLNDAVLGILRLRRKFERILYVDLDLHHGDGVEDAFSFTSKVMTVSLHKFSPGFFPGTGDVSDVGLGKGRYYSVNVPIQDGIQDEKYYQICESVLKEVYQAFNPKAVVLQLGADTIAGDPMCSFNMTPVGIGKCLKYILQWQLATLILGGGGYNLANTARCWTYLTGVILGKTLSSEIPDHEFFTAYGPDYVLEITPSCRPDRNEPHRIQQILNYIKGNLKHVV
Kind of series: Inhibition of HDAC8 (unknown origin).

Series [3] concerns Human immunodeficiency virus. Kind of series: Reactivation of HIV latency infected in human 2C4 cells in presence of 0.1 % NHS by luciferase reporter gene assay. The settings on record: Human immunodeficiency virus 1, 2C4. The class given is functional, organism-based. (A reporter such as luciferase makes a cellular process visible.)
In series [4] the test system is Human immunodeficiency virus. Briefly: Reactivation of HIV latency infected in human 2C4 cells in presence of 5 % NHS by luciferase reporter gene assay. The class given is functional, organism-based. The note with it: Human immunodeficiency virus 1, 2C4.
Series [5] in a line: Half life in Wistar Han rat at 2 mg/kg, iv. The note with it: in vivo. It is filed as ADME, organism-based.
A short description of series [6]: Clearance in Wistar Han rat at 2 mg/kg, iv. It is filed as ADME, organism-based. The note with it: in vivo.
The nature of series [7]: AUC in Wistar Han rat at 10 mg/kg, po. It is filed as ADME, organism-based. Details: dose 10 mg/kg. The note with it: in vivo.
Series [8] in a line: Tmax in Wistar Han rat at 10 mg/kg, po. The class given is ADME, organism-based. The note with it: in vivo.
A short description of series [9]: Cmax in Wistar Han rat at 10 mg/kg, po. The class given is ADME, organism-based. Further details: route oral, dose 10 mg/kg. The note with it: in vivo.
The nature of series [10]: Plasma concentration in Wistar Han rat at 10 mg/kg, po after 24 hrs. It is filed as ADME, organism-based.
Series [11] is described as follows: Oral bioavailability in Wistar Han rat at 10 mg/kg. It is filed as ADME, organism-based. The settings on record: in vivo.
For series [12], the species on record is Homo sapiens. Briefly: Selectivity ratio of IC50 for HDAC8 (unknown origin) to IC50 for HDAC6 (unknown origin).
A short description of series [13]: Ratio of EC50 for reactivation of HIV latency infected in human 2C4 cells in presence of 5 % NHS by luciferase reporter gene assay to EC50 for reactivation of HIV latency infected in human 2C4 cells in presence of 0.1 % NHS by luciferase reporter gene assay. The class given is functional, Human immunodeficiency virus.
Series [14] has as its target Histone deacetylase 3 (Homo sapiens, UniProt O15379). Briefly: Inhibition of HDAC3 (unknown origin).
A short description of series [15]: Half life in Wistar Han rat at 0.05 mg/kg, iv. The class given is ADME, organism-based. The settings on record: in vivo.
Series [16] in a line: Clearance in Wistar Han rat at 0.05 mg/kg, iv. The class given is ADME, organism-based. The settings on record: in vivo.

Sequence of Histone deacetylase 3 (O15379 whole entry): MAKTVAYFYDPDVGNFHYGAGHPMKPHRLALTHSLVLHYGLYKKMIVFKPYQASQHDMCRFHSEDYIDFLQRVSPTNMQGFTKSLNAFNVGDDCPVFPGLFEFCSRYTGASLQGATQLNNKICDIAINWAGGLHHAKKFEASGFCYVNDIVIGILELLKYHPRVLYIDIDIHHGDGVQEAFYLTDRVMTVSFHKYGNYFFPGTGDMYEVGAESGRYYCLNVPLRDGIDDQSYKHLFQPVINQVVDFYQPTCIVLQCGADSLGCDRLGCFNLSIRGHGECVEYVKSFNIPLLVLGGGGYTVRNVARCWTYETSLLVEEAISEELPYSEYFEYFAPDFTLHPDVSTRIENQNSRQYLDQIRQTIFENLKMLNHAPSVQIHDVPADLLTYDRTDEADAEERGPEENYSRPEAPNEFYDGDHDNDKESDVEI

For the molecule `CCC(=O)CCCCC[C@@H]1NC(=O)[C@H]2CC23CCN(CCOCCn2ccc4cc(ccc4c2=O)-c2cnc1[nH]2)CC3`, the IC50 in series [1] and in series [2] was greater than 900 nM in each case. Further, the EC50 in series [3] and in [4] was greater than 40000 nM in each case. The half-life in [5] is 3.9 h. For the same molecule, the clearance in series [6] was found to be 3.9 mL/min/kg. In addition, in [7], the AUC amounted to 0.11 µM·h. For the same molecule, the Tmax in [8] is 0.25 h. The molecule further showed a Cmax in series [9] of 62 nM. The molecule also registered a concentration at 24 h in [10] of 1 nM. This molecule also showed a bioavailability in series [11] of 0.15%.
Regarding `CCC(=O)CCCCC[C@@H]1NC(=O)[C@H]2CC23CCN(CCCCCCCCn2ccc4cc(c(OC)cc4c2=O)-c2cnc1[nH]2)CC3`, the IC50 in series [2] is greater than 900 nM. The EC50 was found to be 11 nM in series [3] and 12 nM in series [4]. In series [5], this molecule had a half-life of 1.4 h. Besides, the clearance in series [6] amounted to 96 mL/min/kg. Further, the AUC in series [7] was 0.04 µM·h. For the same molecule, the Tmax in series [8] was 3 h. In addition, in series [9], the Cmax is 13 nM. In [11], this molecule registered a bioavailability of 2.9%. The Ratio IC50 in series [12] was greater than 1000. Besides, the “Ratio EC50” value in series [13] worked out at 1.1.
As to `CCC(=O)CCCCC[C@@H]1NC(=O)[C@H]2CC23CCN(CCCCCCCCn2ccc4cc(ccc4c2=O)-c2cnc1[nH]2)CC3`, the half-inhibitory concentration (IC50) in series [14] is 0.06 nM; in series [1] it was greater than 900 nM; in [2], greater than 900 nM. The results for the EC50 in [3] and in [4] were 14 nM and 16 nM, respectively. The same molecule gave a half-life in [15] of 2.8 h. Moreover, the clearance in [16] is 312 mL/min/kg. The Ratio IC50 in series [12] is greater than 1000. Besides, in [13], the “Ratio EC50” value is given as 1.1.

The term IC50 denotes the concentration that inhibits the measured activity by half. A higher IC50 goes with weaker potency in that assay. Broadly, the EC50 is the concentration giving half of the maximal effect. By half-life is commonly meant how long it takes for the measured level to halve. High values mean slow loss, low ones fast loss. By clearance is commonly meant the rate of elimination divided by the concentration. Low readings indicate a low capacity for elimination, high ones a high capacity for elimination. Usually AUC stands for concentration integrated over time. Read a low AUC as low exposure. As a reminder, the Tmax is the time from dosing to the highest level. As a reminder, the Cmax is the peak of the concentration-time curve. Broadly, the bioavailability is the share of a dose that reaches the circulation, judged against a reference dose that is usually intravenous.
